# Data published in US12036282B2, “Liposomal system for drug delivery” (NewSouth Innovations PTY Limited, priority 2017, dated 2024).
# {FAM} = fluorescein (FAM) label
# Assay: Agarose gel electrophoresis of oligonucleotide after X-ray exposure
# Assay type: physicochemical
# Conditions: X-ray 1, 2 and 4 Gy, compared with the control
# Procedure: The PC12, HCT116 and CCD 841 CoN cells (1-4×10^4/mL) were, respectively, grown on 96-well plates in a culture medium with 10% FBS for 24 hr. For liposome and LipoDox treatment experiments, the PC12 cells and CCD 841 CoN cells were, respectively, incubated with different liposome and LipoDox samples for 4 hours, followed by incubation in a fresh medium for further 24 hours. For the X-ray exposure experiments, all three types of cells were radiated with 4 Gy, followed by incubation in a fresh medium for further 24 and 48 hours. Cell viability was assessed by using the same method as described above. For X-ray treatment of pure DNA molecules and mixture of DNA and verteporfin, 50 μL of antisense oligonucleotide solution (10 μg/mL) and 50 μL of mixture solution (10 μg/mL DNA and 32 μg/mL verteporfin) was respectively exposed to X-ray radiation with different dosage (1, 2 and 4 Gy). After treatment, the gel electrophoresis was carried out in 1.2% agarose gel in Tris-acetate-EDTA (TAE) buffer at 95 V for 45 min. The gel was stained with SYBR Safe DNA Gel Stain (Thermo Fisher) and photographed under UV light using a Bio-Rad imaging system.
substance,measurement,value
"5′-TGGTGCTTCCCAGCCACTAT-3′ (SEQ ID NO:1) (3' {FAM}, sugars by position and backbone not given here) [DNA molecules, antisense oligonucleotide against PAC1R gene, 10 μg/mL solution exposed to X-ray]",damage to oligonucleotide after X-ray radiation (gel electrophoresis),did not cause obvious damage
